Source: US20240059710A1, “KRAS G12D Inhibitors” (Jacobio Pharmaceuticals Co., Ltd., priority 2020, published 2024)
Read-outs that look alike come from different tables or passages of the source.

Tests used:
[1] = test system: AGS; assay: Cell growth inhibition assay (AGS); type: cell-based; conditions: 6 days incubation, CellTiter-Glo
Protocol: (§1) 4. Cell Growth Inhibition Assay
AGS cultured in F12K medium (Gibco) containing 10% fetal bovine serum (Gibco). Cells in culture medium were plated in 96-well plates at a concentration of 500 cells/well ([…]) and allowed to attach overnight.
(§2) The next day, compounds were diluted in culture medium and added to the plates. After 6 days incubation in a 37° C./5% CO2 cell incubator, the cell viability was detected by CellTiter-Glo® Luminescent Cell Viability Assay kit (Promega). Luminescent signals were read on Tecan Spark multimode microplate reader and analyzed using a 4-parameter logistic model to calculate IC50 values.

[2] = target: T1, GDP-loaded HIS-KRAS (G12D, aa 1-169) (Homo sapiens, UniProt P01116, G12D); assay: SOS1 catalyzed nucleotide exchange assay; type: biochemical; conditions: SOS1 ExD, TR-FRET, 4 hours at 25° C.
T1 construct: GDP-loaded HIS-KRAS (G12D, aa 1-169)
Protocol: 1. SOS1 Catalyzed Nucleotide Exchange Assay
GDP-loaded HIS-KRAS (G12D, aa 1-169) was pre-incubated with a compound in the presence of 10 nM GDP in a 384-well plate (Greiner) for 15 min, then purified SOS1 ExD (Flag tag, aa 564-1049), BODIPY™ FL GTP (Invitrogen) and MAb (monoclonal antibody) Anti 6HIS-Tb cryptate Gold (Cisbio) were added to the assay wells (Final concentration: 1.5 nM GDP-loaded HIS-KRAS (G12D), 5 nM GDP, 0.5 μM SOS1 ExD, 80 nM BODIPY™ FL GTP, 52.5 ng/mL MAb Anti 6HIS-Tb cryptate Gold) and incubated for 4 hours at 25° C. Wells containing same percent of DMSO served as vehicle control, and wells without KRAS served as low control. TR-FRET signals were read on Tecan Spark multimode microplate reader. The parameters were F486: Excitation 340 nm, Emission 486 nm, Lag time 100 μs, Integration time 200 μs; F515: Excitation 340 nm, Emission 515 nm, Lag time 100 μs, Integration time 200 μs. TR-FRET ratios for each individual wells were calculated by equation: TR-FRET ratio=(Signal F515/Signal F486)*10000. The percent of activation of compounds treated wells were normalized between vehicle control and low control (% Activation=(TR-FRET ratioCompound treated−TR-FRET ratioLow control)/(TR-FRET ratioVehicle control−TR-FRET ratioLow control)*100%). Then the data were analyzed either by fitting a 4-parameter logistic model or by Excel to calculate IC50 values.

[3] = test system: AsPC-1; assay: Cell growth inhibition assay (AsPC-1); type: cell-based; conditions: AsPC-1, 6 days incubation, CellTiter-Glo
Protocol: as §1
AsPC-1 cultured in RPMI-1640 medium (Gibco) containing 10% fetal bovine serum (Gibco). Cells in culture medium were plated in 96-well plates at a concentration of 1000 cells/well ([…]) and allowed to attach overnight.
as §2

[4] = test system: AGS cells expressing KRAS G12D; assay: Phospho-ERK1/2(THR202/TYR204) HTRF assay; type: cell-based; conditions: 2 hours incubation, read-out: AGS p-ERK IC50
Protocol: AGS cells expressing KRAS G12D were cultured in F12K medium (Gibco) containing 10% fetal bovine serum (Gibco). The AGS cells in culture medium were seeded in 96-well plates at a concentration of 40,000 cells/well and then put in a 37° C./5% CO2 cell incubator to incubate overnight. The next day, culture medium was removed and the compound diluted in assay medium (F12K, 0.1% FBS) was added in each well. After 2 hours incubation in a 37° C./5% CO2 cell incubator, the assay medium in 96-well plates was removed, then 50 μL of 1× blocking reagent-supplemented lysis buffer (Cisbio) was added and the plates were incubated at 25° C. for 45 min with shaking. 10 μL of cell lysates from the 96-well plates were transferred to a 384-well plate (Greiner) containing 2.5 μL/well HTRF® pre-mixed antibodies (Cisbio 64AERPEH). Incubate 4 hours at 25° C. and then read HTRF signals on Tecan Spark multimode microplate reader. The data were analyzed using a 4-parameter logistic model to calculate IC50 values.

[5] = target: T2, GppNp-loaded HIS-KRAS (G12D, aa 1-169) / cRAF RBD (Homo sapiens, UniProt P01116, G12D); assay: GTP-KRAS and cRAF interaction assay; type: binding; conditions: HTRF, 2 hours at 25° C.
T2 construct: GppNp-loaded HIS-KRAS (G12D, aa 1-169)
Protocol: 2. GTP-KRAS and cRAF Interaction Assay
GppNp-loaded HIS-KRAS (G12D, aa 1-169) was pre-incubated with a compound in the presence of 200 µM GTP in a 384-well plate (Greiner) for 15 min, then cRAF RBD (GST tag, aa 50-132, CreativeBioMart), MAb Anti GST-d2 (Cisbio) and MAb Anti 6HIS-Tb cryptate Gold (Cisbio) were added to the assay wells (Final concentration: 2.0 nM GppNp-loaded HIS-KRAS (G12D), 100 μM GTP, 35 nM cRAF RBD, 1 μg/mL MAb Anti GST-d2, 52.5 ng/mL MAb Anti 6HIS-Tb cryptate Gold) and incubated for 2 hours at 25° C. Wells containing same percent of DMSO served as vehicle control, and wells without KRAS served as low control. HTRF signals were read on Tecan Spark multimode microplate reader and HTRF ratios were calculated under manufacturer's instructions. The percent of activation of compounds treated wells were normalized between vehicle control and low control (% Activation=(HTRF ratioCompound treated−HTRF ratioLow control)/(HTRF ratioVehicle control−HTRF ratioLow control)*100). Then the data were analyzed either by fitting a 4-parameter logistic model or by Excel to calculate IC50 values.

T2 sequence (P01116 1-169 isoform P01116-2 G12D): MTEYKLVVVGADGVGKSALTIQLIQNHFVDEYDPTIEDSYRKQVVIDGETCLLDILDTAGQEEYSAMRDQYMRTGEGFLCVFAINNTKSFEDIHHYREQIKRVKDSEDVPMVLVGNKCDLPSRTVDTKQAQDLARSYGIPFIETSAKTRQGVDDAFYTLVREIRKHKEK
T1 sequence (P01116 1-169 isoform P01116-2 G12D): as above

SMILES	IC50 [1]	IC50 [2]	IC50 [3]	IC50 [4]	IC50 [5]	IC50 ([1]; Homo sapiens, 144 h)	IC50 ([3]; Homo sapiens, ASPC1, 144 h)	IC50 ([4]; Homo sapiens)
C#Cc1cccc2cc(O)cc(-c3c(Cl)cc4c(N5CC6CCC(C5)N6)nc(OCC5(CN6CCOCC6)CC5)nc4c3F)c12 (single isomer, unassigned) [Compound 35B]	13.4 nM	5.94 nM	39.5 nM	6.2 nM	111 nM	–	–	–
C#Cc1cccc2cc(O)cc(-c3c(C4CC4)cc4c(N5CC6CCC(C5)N6)nc(OCC5(CN6CCOCC6)CC5)nc4c3F)c12 (single isomer, unassigned) [Compound 38B]	10.5 nM	0.727 nM	158 nM	12.4 nM	13.2 nM	–	–	–
C#Cc1cccc2cc(O)cc(-c3c(C)cc4c(N5CC6CCC(C5)N6)nc(OCC5(CN6CCOCC6)CC5)nc4c3F)c12 (single isomer, unassigned) [Compound 40B]	4.92 nM	0.824 nM	45.8 nM	1.97 nM	22.4 nM	–	–	–
C#Cc1cccc2cc(O)cc(-c3c(F)cc4c(N5CC6CCC(C5)N6)nc(OCC5(CN6CCOCC6)CC5)nc4c3F)c12 (single isomer, unassigned) [Compound 41B]	0.671 nM	6.9 nM	3.84 nM	1.01 nM	50.4 nM	–	–	–
C#Cc1cccc2cc(O)cc(-c3c(SC(F)(F)F)cc4c(N5CC6CCC(C5)N6)nc(OCC5(CN6CCOCC6)CC5)nc4c3F)c12 (single isomer, unassigned) [Compound 59B]	6 nM	1.65 nM	5.54 nM	10.8 nM	6.28 nM	–	–	–
C#Cc1cccc2cc(O)cc(-c3c(C#N)cc4c(N5CC6CCC(C5)N6)nc(OCC5(CN6CCOCC6)CC5)nc4c3F)c12 (single isomer, unassigned) [Compound 60B]	13.1 nM	12.5 nM	207 nM	6.96 nM	62.9 nM	–	–	–
C#Cc1cccc2cc(O)cc(-c3c(Cl)cc4c(N5CC6CCC(C5)N6)nc(OC[C@@]56CCCN5C[C@H](F)C6)nc4c3F)c12 (single isomer, unassigned) [Compound 72B]	4.71 nM	3.3 nM	48.7 nM	1.51 nM	23 nM	–	–	–
C#Cc1cccc2cc(O)cc(-c3c(C(F)(F)F)cc4c(N5CC6CCC(C5)N6)nc(OCC5(CN6CCOCC6)CC5)nc4c3F)c12 (single isomer, unassigned) [Compound 98A]	319 nM	219 nM	1440 nM	1830 nM	4260 nM	–	–	–
C#Cc1cccc2cc(O)cc(-c3c(C(F)(F)F)cc4c(N5CC6CCC(C5)N6)nc(OCC5(CN6CCOCC6)CC5)nc4c3F)c12 (single isomer, unassigned) [Compound 98B]	6.03 nM	0.826 nM	36.7 nM	11.6 nM	11.2 nM	–	–	–
C#Cc1cccc2cc(O)cc(-c3c(Cl)cc4c(N5CC6CCC(C5)N6)nc(OCC5(CN6CCOCC6)CC5)nc4c3Cl)c12 (single isomer, unassigned) [Compound 107B]	–	3.16 nM	–	–	399 nM	150 nM	395 nM	57.6 nM
C#Cc1cccc2cc(O)cc(-c3ccc4c(N5CC6CCC(C5)N6)nc(OCC5(CN6CCOCC6)CC5)nc4c3F)c12 [Compound 34]	–	8.73 nM	–	–	12.6 nM	11.1 nM	19.1 nM	2.16 nM
C#Cc1cccc2cc(O)cc(-c3c(Cl)cc4c(N5CC6CCC(C5)N6)nc(OCC5(CN6CCOCC6)CC5)nc4c3F)c12 [Compound 35]	–	10.4 nM	–	–	113 nM	8.58 nM	99.3 nM	32.2 nM
C#Cc1cccc2cc(O)cc(-c3c(C4CC4)cc4c(N5CC6CCC(C5)N6)nc(OCC5(CN6CCOCC6)CC5)nc4c3F)c12 [Compound 38]	–	13.8 nM	–	–	126 nM	51 nM	141 nM	19.8 nM
C#Cc1cccc2cc(O)cc(-c3c(C)cc4c(N5CC6CCC(C5)N6)nc(OCC5(CN6CCOCC6)CC5)nc4c3F)c12 [Compound 40]	–	27.7 nM	–	–	74.3 nM	15.4 nM	55.5 nM	3.72 nM
C#Cc1cccc2cc(O)cc(-c3c(F)cc4c(N5CC6CCC(C5)N6)nc(OCC5(CN6CCOCC6)CC5)nc4c3F)c12 [Compound 41]	–	9.17 nM	–	–	211 nM	6.96 nM	18.7 nM	2.63 nM
C#Cc1cccc2cc(O)cc(-c3c(F)cc4c(N5CC6CCC(C5)N6)nc(OCC5(CN6CCOCC6)CC5)nc4c3Cl)c12 [Compound 43]	–	18 nM	–	–	417 nM	18.3 nM	43.6 nM	17.8 nM
Oc1cc(-c2ccc3c(N4CC5CCC(C4)N5)nc(OCC4(CN5CCOCC5)CC4)nc3c2F)c2cccc(F)c2c1 [Compound 50]	–	56.9 nM	–	–	1110 nM	–	–	441 nM
Oc1cc(-c2c(Cl)cc3c(N4CC5CCC(C4)N5)nc(OCC4(CN5CCOCC5)CC4)nc3c2F)c2c(F)cccc2c1 [Compound 53]	–	57.1 nM	–	–	853 nM	–	–	99.6 nM
C#Cc1cccc2cc(O)cc(-c3ccc4c(N5CCNC[C@H]5C)nc(OC[C@@]56CCCN5C[C@H](F)C6)nc4c3F)c12 [Compound 69]	–	25.1 nM	–	–	781 nM	–	1070 nM	–
C#Cc1cccc2cc(O)cc(-c3ccc4c(N5C6CCC5CNC6)nc(OC[C@@]56CCCN5C[C@H](F)C6)nc4c3F)c12 [Compound 70]	–	8.43 nM	–	–	59.1 nM	–	140 nM	–
Oc1cc(-c2c(Cl)cc3c(N4CC5CCC(C4)N5)nc(OCC4(CN5CCOCC5)CC4)nc3c2F)c2cccc(F)c2c1 [Compound 92]	–	152 nM	–	–	3960 nM	–	–	–
C#Cc1c(F)ccc2cccc(-c3ccc4c(N5CC6CCC(C5)N6)nc(OCC5(CN6CCOCC6)CC5)nc4c3F)c12 [Compound 93]	–	93.2 nM	–	–	2180 nM	–	–	–
C#Cc1cccc2cc(O)cc(-c3ccc4c(N5[C@H]6CN[C@H](C6)[C@H]5CC#N)nc(OCC5(CN6CCOCC6)CC5)nc4c3F)c12 [Compound 128]	–	> 100 nM	–	–	519 nM	–	–	–
